In the NIST ThermoML archive (doi:10.1016/j.fluid.2004.12.009):
Numbers after ± are expanded uncertainties.

Experiments:
[1] = 298.15 K, Drop volume
[2] = xn = mol fraction of the nth substance listed; conditions: 298.15 K, Drop volume

Cc1ccc(C)cc1 [1,4-dimethylbenzene]
surface tension liquid-gas [1]: 27.7 ± 0.21 mN/m

CCCOC(=O)CC [propyl propanoate] + Cc1ccc(C)cc1
surface tension liquid-gas ([2]; x1 = 0.061): 27.46 ± 0.2 mN/m | surface tension liquid-gas ([2]; x1 = 0.0898): 27.35 ± 0.2 mN/m | surface tension liquid-gas ([2]; x1 = 0.1545): 27.09 ± 0.2 mN/m | surface tension liquid-gas ([2]; x1 = 0.2219): 26.82 ± 0.2 mN/m | surface tension liquid-gas ([2]; x1 = 0.2558): 26.69 ± 0.2 mN/m | surface tension liquid-gas ([2]; x1 = 0.3257): 26.42 ± 0.2 mN/m | surface tension liquid-gas ([2]; x1 = 0.388): 26.18 ± 0.2 mN/m | surface tension liquid-gas ([2]; x1 = 0.4204): 26.07 ± 0.2 mN/m | surface tension liquid-gas ([2]; x1 = 0.4851): 25.83 ± 0.2 mN/m | surface tension liquid-gas ([2]; x1 = 0.5211): 25.71 ± 0.2 mN/m | surface tension liquid-gas ([2]; x1 = 0.5809): 25.5 ± 0.19 mN/m | surface tension liquid-gas ([2]; x1 = 0.6209): 25.38 ± 0.19 mN/m | surface tension liquid-gas ([2]; x1 = 0.6846): 25.17 ± 0.19 mN/m | surface tension liquid-gas ([2]; x1 = 0.7187): 25.07 ± 0.19 mN/m | surface tension liquid-gas ([2]; x1 = 0.7976): 24.82 ± 0.19 mN/m | surface tension liquid-gas ([2]; x1 = 0.8562): 24.62 ± 0.19 mN/m | surface tension liquid-gas ([2]; x1 = 0.8779): 24.56 ± 0.19 mN/m | surface tension liquid-gas ([2]; x1 = 0.9544): 24.28 ± 0.19 mN/m

CCCOC(=O)CC [propyl propanoate]
surface tension liquid-gas [1]: 24.1 ± 0.19 mN/m

Cc1ccccc1C [1,2-dimethylbenzene]
surface tension liquid-gas [1]: 29.27 ± 0.21 mN/m

CCCOC(=O)CC [propyl propanoate] + Cc1cccc(C)c1
surface tension liquid-gas ([2]; x1 = 0.0621): 27.69 ± 0.21 mN/m | surface tension liquid-gas ([2]; x1 = 0.0989): 27.5 ± 0.21 mN/m | surface tension liquid-gas ([2]; x1 = 0.1636): 27.19 ± 0.2 mN/m | surface tension liquid-gas ([2]; x1 = 0.2293): 26.88 ± 0.2 mN/m | surface tension liquid-gas ([2]; x1 = 0.2608): 26.74 ± 0.2 mN/m | surface tension liquid-gas ([2]; x1 = 0.3264): 26.45 ± 0.2 mN/m | surface tension liquid-gas ([2]; x1 = 0.4215): 26.07 ± 0.2 mN/m | surface tension liquid-gas ([2]; x1 = 0.6132): 25.34 ± 0.19 mN/m | surface tension liquid-gas ([2]; x1 = 0.7485): 24.86 ± 0.19 mN/m | surface tension liquid-gas ([2]; x1 = 0.7827): 24.74 ± 0.19 mN/m | surface tension liquid-gas ([2]; x1 = 0.8542): 24.52 ± 0.19 mN/m | surface tension liquid-gas ([2]; x1 = 0.8896): 24.41 ± 0.19 mN/m

CCCOC(=O)CC [propyl propanoate] + Cc1ccccc1C
surface tension liquid-gas ([2]; x1 = 0.0587): 28.88 ± 0.21 mN/m | surface tension liquid-gas ([2]; x1 = 0.0915): 28.66 ± 0.21 mN/m | surface tension liquid-gas ([2]; x1 = 0.1548): 28.27 ± 0.21 mN/m | surface tension liquid-gas ([2]; x1 = 0.2236): 27.85 ± 0.21 mN/m | surface tension liquid-gas ([2]; x1 = 0.2531): 27.68 ± 0.21 mN/m | surface tension liquid-gas ([2]; x1 = 0.3216): 27.3 ± 0.2 mN/m | surface tension liquid-gas ([2]; x1 = 0.3862): 26.95 ± 0.2 mN/m | surface tension liquid-gas ([2]; x1 = 0.4212): 26.77 ± 0.2 mN/m | surface tension liquid-gas ([2]; x1 = 0.4836): 26.45 ± 0.2 mN/m | surface tension liquid-gas ([2]; x1 = 0.517): 26.29 ± 0.2 mN/m | surface tension liquid-gas ([2]; x1 = 0.5814): 25.98 ± 0.2 mN/m | surface tension liquid-gas ([2]; x1 = 0.6503): 25.64 ± 0.2 mN/m | surface tension liquid-gas ([2]; x1 = 0.6829): 25.49 ± 0.19 mN/m | surface tension liquid-gas ([2]; x1 = 0.7507): 25.17 ± 0.19 mN/m | surface tension liquid-gas ([2]; x1 = 0.7823): 25.03 ± 0.19 mN/m | surface tension liquid-gas ([2]; x1 = 0.8909): 24.54 ± 0.19 mN/m | surface tension liquid-gas ([2]; x1 = 0.9636): 24.23 ± 0.19 mN/m

Cc1cccc(C)c1 [1,3-dimethylbenzene]
surface tension liquid-gas [1]: 28.03 ± 0.21 mN/m
